Results from patent US7727950B2, “Methods and reagents for assaying protein kinase activity” (The University of Dundee, priority 2002, dated 2010).
Square brackets hold non-standard residues; d marks the D form. Ends that are not written are not given here. pS = N[C@@H](COP(=O)(O)O)C(=O)O

Columns and labels:
[1] = system: peptide LpSFAEPGC conjugated to bovine serum albumin; test: Immunoblot of phospho-specific antibody with peptide competition (FIG. 1); assay type: binding; settings: competition studies
Procedure: Aliquots (10 ng or 100 ng) of the peptide LpSFAEPGC (SEQ ID NO: 17) conjugated to bovine serum albumin were spotted on to a nitrocellulose membrane and immunoblotted with the phospho-specific antibody raised against the phospho-peptide immunogen in the presence or absence of the peptides shown on the right. The prefix “p” before S denotes the serine-phosphorylated form of the peptide.
Antibodies that recognise the common seven residue phosphorylated motif (LpSFAEPG) (SEQ ID NO:7) contained within each of the three generic peptide substrates described under results, were raised against the peptide LpSFAEPGC (SEQ ID NO:17) (where pS represents phosphoserine). The C-terminal cysteine residue was added to enable coupling to keyhole limpet haemocyanin. The peptide-protein conjugate was injected into sheep at Diagnostic Scotland (Carluke, U.K.) and the anti-sera purified on protein G-Sepharose (Amersham Pharmacia Biotech) by Dr J. Leitch in this Unit. Antibodies were used at a concentration of 2 μg/ml for immunoblotting and 10-20 μg/ml for detection of phosphorylated peptides in the modified ELISA format. Rabbit anti-sheep antibodies conjugated to peroxidase were obtained from Pierce (Tattenhall, Cheshire, UK) and used at 1/10,000 dilution. […]

[2] = target: T1, PKCα (Homo sapiens, UniProt P17252); test: Kinetic parameters for peptide phosphorylation, radioactive filter-binding assay; assay type: biochemical; settings: Standard Substrate = histone H1
T1 construct: purchased Calbiochem Novachem Corp; host or cells: Sf21 insect cells
Text: (§1) Apart from the AMP-activated protein kinase (AMPK, a gift from Drs S. Hawley and D. G. Hardie), cGMP-dependent protein kinase (PKG, a generous gift from Drs Susan Lohmann and Ulrich Walter, University of Wurzburg, Germany) and the catalytic subunit of cyclic AMP-dependent protein kinase (PKA, a gift from Dr C. Smythe), which were isolated from rat liver, bovine lung and bovine heart, respectively, all other protein kinases were expressed as either GST-fusion or His-tagged proteins (by a person, a person, Dr A. Paterson or a person, in this Division). The expressed proteins all corresponded to the human sequences apart from the rat Rho-dependent protein kinase (ROCK-II) and rat mitogen-activated protein kinase (MAPK) activated kinase-1a (MAPKAP-K1a, also called RSK). GST-fusion proteins were purified on GSH-agarose (Amersham Pharmacia Biotech, Amersham, UK) and His-tagged proteins on Ni-NTA agarose (Qiagen) essentially according to the manufacturer's instructions. All the protein kinases used in this study are available from Upstate Biotechnology Inc. (Lake Placid, N.Y., USA), apart from the α-isoform of calmodulin-dependent protein kinase II (CaMKII), MAPKAP-K3 and PKG. […]
(§2) All protein kinase assays were linear with respect to time. […] All papers were subsequently washed a further three times in phosphoric acid, once in acetone, then dried and counted for radioactivity. […] The plates were then washed six times (five min per wash) in PBS, 0.1% Tween 20 and binding of the phospho-specific antibody detected by incubating the plates with peroxidase-conjugated anti-sheep antibodies (Pierce). […] Signals were quantitated on LAS-1000IR software (FujiFilm). […]

[3] = target: T2, ROCKII (Rattus norvegicus, UniProt Q62868); test: as above; assay type: biochemical; settings: Standard Substrate = KEAKEKRQEQIAKRRRLSSLRASTSKSGGSQK
T2 construct: rat ROCKII[1-543]; made in house; host or cells: Sf21 insect cells
T2 sequence (Q62868 1-543): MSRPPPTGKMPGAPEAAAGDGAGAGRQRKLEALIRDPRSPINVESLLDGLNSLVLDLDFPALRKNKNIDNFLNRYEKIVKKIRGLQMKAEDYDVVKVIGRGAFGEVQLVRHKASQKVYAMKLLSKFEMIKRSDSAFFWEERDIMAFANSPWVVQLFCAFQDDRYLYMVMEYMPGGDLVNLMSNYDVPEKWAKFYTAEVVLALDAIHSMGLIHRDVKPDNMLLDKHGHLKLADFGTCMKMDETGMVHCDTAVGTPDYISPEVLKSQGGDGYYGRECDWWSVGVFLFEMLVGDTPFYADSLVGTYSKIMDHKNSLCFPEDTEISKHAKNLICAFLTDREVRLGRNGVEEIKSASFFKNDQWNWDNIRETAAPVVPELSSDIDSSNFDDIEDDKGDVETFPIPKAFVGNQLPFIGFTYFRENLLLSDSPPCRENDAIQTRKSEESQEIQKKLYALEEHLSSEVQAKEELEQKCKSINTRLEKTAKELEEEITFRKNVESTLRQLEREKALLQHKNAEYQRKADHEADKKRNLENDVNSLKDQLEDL
Text: as §1, §2

[4] = target: T3, CHK2 (Homo sapiens, UniProt O96017); test: as above; assay type: biochemical; settings: Standard Substrate = KKKVSRSGLYRSPSMPENLNRPR
T3 construct: an additional His-tag at the extreme C-terminus, to aid purification of the full-length product; GST; His-tag (C); made in house; host or cells: E. coli
T3 sequence (O96017 whole entry): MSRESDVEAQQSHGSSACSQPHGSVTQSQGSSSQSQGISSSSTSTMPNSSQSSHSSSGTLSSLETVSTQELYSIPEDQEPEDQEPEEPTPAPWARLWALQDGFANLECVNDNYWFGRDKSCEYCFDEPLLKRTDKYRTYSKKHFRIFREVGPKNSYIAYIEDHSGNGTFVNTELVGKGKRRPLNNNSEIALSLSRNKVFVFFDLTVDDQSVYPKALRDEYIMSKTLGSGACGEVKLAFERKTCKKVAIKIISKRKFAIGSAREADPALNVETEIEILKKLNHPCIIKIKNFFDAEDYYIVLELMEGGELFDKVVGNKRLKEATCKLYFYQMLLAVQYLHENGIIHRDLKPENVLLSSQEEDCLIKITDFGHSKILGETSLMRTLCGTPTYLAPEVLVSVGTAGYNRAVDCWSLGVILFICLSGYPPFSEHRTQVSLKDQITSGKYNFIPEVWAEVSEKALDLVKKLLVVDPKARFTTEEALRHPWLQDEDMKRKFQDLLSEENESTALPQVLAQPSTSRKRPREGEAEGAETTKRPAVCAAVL
Text: as §1, with “RSK).” for “RSK). GST-fusion proteins were purified on GSH-agarose (Amersham Pharmacia Biotech, Amersham, UK) and His-tagged proteins on Ni-NTA agarose (Qiagen) essentially according to the manufacturer's instructions. All the protein kinases used in this study are available from Upstate Biotechnology Inc. (Lake Placid, N.Y., USA), apart from the α-isoform of calmodulin-dependent protein kinase II (CaMKII), MAPKAP-K3 and PKG.”
as §2

[5] = target: T4, CHK1 (Homo sapiens, UniProt O14757); test: as above; assay type: biochemical; settings: Standard Substrate = KKKVSRSGLYRSPSMPENLNRPR
T4 construct: made in house; host or cells: Sf21 insect cells
T4 sequence (O14757 1-476): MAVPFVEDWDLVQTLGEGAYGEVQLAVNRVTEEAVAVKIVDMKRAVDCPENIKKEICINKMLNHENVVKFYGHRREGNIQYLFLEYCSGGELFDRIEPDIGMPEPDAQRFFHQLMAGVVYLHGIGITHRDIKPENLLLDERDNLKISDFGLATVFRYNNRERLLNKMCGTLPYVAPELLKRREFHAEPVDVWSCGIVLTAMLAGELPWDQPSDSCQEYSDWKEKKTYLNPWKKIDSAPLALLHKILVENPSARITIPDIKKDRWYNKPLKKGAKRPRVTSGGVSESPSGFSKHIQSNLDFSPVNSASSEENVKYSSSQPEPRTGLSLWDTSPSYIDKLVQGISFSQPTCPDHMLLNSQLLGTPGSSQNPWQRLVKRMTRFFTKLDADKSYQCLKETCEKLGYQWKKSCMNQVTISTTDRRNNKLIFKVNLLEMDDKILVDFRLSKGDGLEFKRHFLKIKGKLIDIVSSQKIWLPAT
Text: as §1, §2

LpSFAEPG (L[pS]FAEPG) [seven residue phospho-peptide antigen, pS is phosphoserine]
neutralisation of the phosphopeptide antibody by pre-incubation with peptide [1]: neutralised

RRRLSFAEPG
Km [2]: > 500 µM
Km [3]: > 100 µM

RARTLSFAEPG
Km [4]: > 300 µM
Km [5]: 5 µM
